From paper PMC11251168, “Effect of ABCB1 most frequent polymorphisms on the accumulation of bictegravir in recombinant HEK293 cell lines” (Scientific Reports, 2024)
Structures can show the parent of a compound that is named as a salt.

Experiments:
[1] = tested on: ABCB1 (HEKWT, HEK1199A, HEKCGT, HEKTTT, HEKcontrol); assay: Model functionality assay: Rhodamine123 intracellular fluorescence with or without zosuquidar; type: cell-based, human; conditions: Rh123 5 μM, 90 min
Protocol: 0.05 × 10^6 cells were seeded on poly-l-lysine coated 96-well plates and incubated overnight. The next day, Rh123 and zosuquidar dilutions were prepared from a stock solution. Cells were incubated for 90 min at 37 °C in the presence of Rh123 at 5 μM. The effect of ABCB1 inhibition was assessed by preincubation of the cells for 15 min with zosuquidar at a concentration of 0.2 μM. After incubation with Rh123, the supernatants were discarded. The cells were washed two times with ice-cold PBS. Sterile water was then added and detachment and lysis were performed through scratching of the well’s surface followed by sonication. Finally, fluorescence of Rh123 was analyzed by an iD3 Spectramax (Molecular Devices) fluorometer (c.1199G > A model validation) or a M3 Spectramax (Molecular Devices) fluorometer (haplotype model validation); excitation wavelength was set at 485 nm and emission at 530 nm. The solution was then used for protein quantification for results normalization.
Statistical analyses were carried out using GraphPad Prism version 9.5.1 for Mac OS X (GraphPad Software). For the functional assays, protein normalized intracellular fluorescences were compared after log-transformation using the natural logarithm (Ln), when required. Comparison was performed using a two-way ANOVA (α = 0.05) followed by a post-hoc analysis testing the effect of the inhibitor, with Bonferroni correction for multiple testing. For the intracellular bictegravir accumulation experiments, triplicates were performed during each experiment, and each experiment was performed thrice. For each experiment, protein normalized bictegravir intracellular concentrations were reported as fold-change of the mean of the protein normalized bictegravir intracellular concentration observed at the lowest bictegravir exposition concentration for HEKcontrol during the same experiment. Fold-change results from the three biological replicates were pooled and are shown on Figs. 3 and 4. Statistical analysis were performed on Ln transformed data that were pooled using the same principle as described here above. […]

[2] = parameters: method as in PMID 36701274; conditions: cited from earlier work
[3] = tested on: ABCB1 1199G-1236T-2677T-3435T; assay: Intracellular bictegravir accumulation in HEK293 cells overexpressing ABCB1 TTT haplotype (HEKTTT); type: in vitro ADME, human; conditions: 2 h incubation, 0.25-5 mg/l; Fig. 4
Text: (§1) The generation and characterization of recombinant cell lines have been described in previous work conducted by our lab[26],[42]. Briefly, human embryonic kidney (HEK293) cells were purchased from American Type Culture Collection and transfected with plasmids carrying either wild-type ABCB1 1199G-1236C-2677G-3435C (thereafter named HEKWT) or several ABCB1 variant combinations obtained using site-directed mutagenesis, 1199A-1236C-2677G-3435C (thereafter named HEK1199A), 1199G-1236C-2677G-3435T (thereafter named HEKCGT) and 1199G-1236T-2677T-3435T (thereafter named HEKTTT); or an empty vector (thereafter named HEKcontrol). HEKCGT was selected, in addition to HEKWT (carrying the CGC haplotype) and HEKTTT, to test the potential impact of c.3435C > T variant. HEK293 cells feature low endogenous levels of expression of ABCB1, ensuring that ABCB1 expression originates almost exclusively from the transfection process. This model has previously been extensively characterized using flow cytometry, Western blot, and fluorescence microscopy, and validated using reference substrates and inhibitors of ABCB1[26],[42]. As the same cells were used, only flow cytometry and functional tests using reference substrates and inhibitors were used to re-characterize them.
(§2) 0.7 × 10^6 cells were seeded on poly-l-lysine-coated 12-well plates and incubated overnight. […] Cell suspensions were centrifugated for 10 min at 10,500×g, 4 °C and 100 μl of the supernatant was transferred to a vial for bictegravir liquid chromatography-tandem mass spectrometry (LC–MS/MS) quantification. […] This mixed solution was used for protein quantification for results normalization.
(§3) Bictegravir intracellular concentrations were determined using an adapted version of a previously published LC–MS/MS method on a Xevo TQS-micro tandem quadrupole mass spectrometer (Waters)[46]. […] The following ion transitions were monitored: 450.1 > 289.1 for bictegravir and 453.2 > 289.2 for bictegravir-15N, d2.
(§4) Total proteins were quantified in pellets using the BCA kit (Thermo Fisher Scientific) according to the manufacturer’s instructions. […]

[4] = target: T1, ABCB1 1199G-1236T-2677T-3435T (Homo sapiens, UniProt P08183); assay: as above; type: in vitro ADME; conditions: 2 h incubation, 0.25-5 mg/l; Fig. 4
T1 construct: expressed in transfected cells; host or cells: HEK293 (ATCC), pcDNA3.1 plasmid, G418 selection
Text: as §1, §2, §3, §4

[5] = tested on: human peripheral blood mononuclear cells; parameters: method as in PMID 36806669; conditions: cited from earlier work
[6] = parameters: method as in PMID 36701274; conditions: cited from earlier work; remark: listed apart in the source
[7] = parameters: method as in PMID 36701274; conditions: thought to be mainly due to passive diffusion; cited from earlier work
[8] = target: T2, ABCB1 (wild-type, HEK1199G cells; HEKcontrol cells) (Homo sapiens, UniProt P08183, S893A); assay: Intracellular bictegravir accumulation with or without the ABCB1 inhibitor zosuquidar (Supplementary Fig. 2); type: in vitro ADME; conditions: bictegravir 2500 ng/mL, 120 min, zosuquidar 0.2 μM preincubation 15 min
T2 construct: expressed in transfected cells; host or cells: HEK293 (ATCC), pcDNA3.1 plasmid, G418 selection
Protocol: 0.7x10^6 cells were seeded on poly-l-lysine-coated 12-well plates and incubated overnight. The next day, bictegravir and zosuquidar dilutions were prepared from a stock solution. Cells were incubated for 120 minutes at 37 °C (5% CO2) in the presence of bictegravir at 2500 ng/mL. The effect of ABCB1 inhibition was assessed by preincubation of the cells for 15 minutes with zosuquidar at a concentration of 0.2 μM. Subsequently, plates were then centrifuged for 3 min at 4 °C, and maintained on ice throughout the experiment to block drug efflux. Cells were washed twice with 1 mL […]
Drug extraction was then performed as described in the Manuscript, in the Methods section describing Intracellular bictegravir accumulation experiments. Drug quantification and protein quantification were performed as described in the dedicated Methods sections.
Reported statistical analysis: ANOVA-2 with post-hoc Bonferroni correction test, performed on log- […]
(1 picture or pasted object on this page, not shown here)

[9] = parameters: method as in PMID 32868324, PMID 32199329; conditions: cited from earlier work
[10] = target: T3, ABCB1 1199G-1236C-2677G-3435T (Homo sapiens, UniProt P08183, S893A); assay: Intracellular bictegravir accumulation in HEK293 cells overexpressing ABCB1 CGT haplotype (HEKCGT); type: in vitro ADME; conditions: 2 h incubation, 0.25-5 mg/l; Fig. 4
T3 construct: expressed in transfected cells; host or cells: HEK293 (ATCC), pcDNA3.1 plasmid, G418 selection
Text: as §1, with “HEKCGT was selected, in addition to HEKWT (carrying the CGC haplotype) and HEKTTT, to test the potential impact of c.3435C > T variant. HEK293 cells feature low endogenous levels of expression of ABCB1, ensuring that ABCB1 expression originates almost exclusively from the transfection process.” left out, “As the same cells were used, only flow cytometry and functional tests using reference substrates and inhibitors were used to re-characterize them.” left out
as §2
(§5) Bictegravir intracellular concentrations were determined using an adapted version of a previously published LC–MS/MS method on a Xevo TQS-micro tandem quadrupole mass spectrometer (Waters)[46]. […]

ABCB1 = tested on: ABCB1; parameters: method as in PMID 36701274; conditions: ABCB1-overexpressing MDCK II transfected cells compared with non-transfected cells; cited from earlier work
[11] = target: T4, ABCB1 1199A-1236C-2677G-3435C (Homo sapiens, UniProt P08183, S400N/S893A); assay: Intracellular bictegravir accumulation in HEK293 cells overexpressing ABCB1 1199A variant (HEK1199A); type: in vitro ADME; conditions: 2 h incubation, 0.25-5 mg/l, Fig. 3
T4 construct: expressed in transfected cells; host or cells: HEK293 (ATCC), pcDNA3.1 plasmid, G418 selection
Text: as §1, with “HEKCGT was selected, in addition to HEKWT (carrying the CGC haplotype) and HEKTTT, to test the potential impact of c.3435C > T variant. HEK293 cells feature low endogenous levels of expression of ABCB1, ensuring that ABCB1 expression originates almost exclusively from the transfection process.” left out, “As the same cells were used, only flow cytometry and functional tests using reference substrates and inhibitors were used to re-characterize them.” left out
as §2, §5

[12] = target: T5, ABCB1 wild-type 1199G-1236C-2677G-3435C (Homo sapiens, UniProt P08183, S893A); assay: Intracellular bictegravir accumulation in HEK293 cells overexpressing wild-type ABCB1 (HEKWT); type: in vitro ADME; conditions: 2 h incubation, 0.25-5 mg/l
T5 construct: expressed in transfected cells; host or cells: HEK293 (ATCC), pcDNA3.1 plasmid, G418 selection
Text: as §1, with “HEKCGT was selected, in addition to HEKWT (carrying the CGC haplotype) and HEKTTT, to test the potential impact of c.3435C > T variant. HEK293 cells feature low endogenous levels of expression of ABCB1, ensuring that ABCB1 expression originates almost exclusively from the transfection process.” left out, “As the same cells were used, only flow cytometry and functional tests using reference substrates and inhibitors were used to re-characterize them.” left out
as §2, §5

[13] = parameters: method as in PMID 32868324, PMID 32199329; conditions: cited from earlier work; remark: listed apart in the source
[14] = tested on: ABCB1 c.1199G > A variant; conditions: cited from earlier work
PBMCs = assay: Preliminary clinical pharmacokinetic assessments of intracellular accumulation in PBMCs; type: in vivo
[15] = tested on: ABCB1 c.1236C > T, c.2677G > T and c.3435C > T variants; conditions: cited from earlier work
[16] = zosuquidar 0.2 μM, 15 min preincubation

T4 sequence (P08183 whole entry S400N/S893A): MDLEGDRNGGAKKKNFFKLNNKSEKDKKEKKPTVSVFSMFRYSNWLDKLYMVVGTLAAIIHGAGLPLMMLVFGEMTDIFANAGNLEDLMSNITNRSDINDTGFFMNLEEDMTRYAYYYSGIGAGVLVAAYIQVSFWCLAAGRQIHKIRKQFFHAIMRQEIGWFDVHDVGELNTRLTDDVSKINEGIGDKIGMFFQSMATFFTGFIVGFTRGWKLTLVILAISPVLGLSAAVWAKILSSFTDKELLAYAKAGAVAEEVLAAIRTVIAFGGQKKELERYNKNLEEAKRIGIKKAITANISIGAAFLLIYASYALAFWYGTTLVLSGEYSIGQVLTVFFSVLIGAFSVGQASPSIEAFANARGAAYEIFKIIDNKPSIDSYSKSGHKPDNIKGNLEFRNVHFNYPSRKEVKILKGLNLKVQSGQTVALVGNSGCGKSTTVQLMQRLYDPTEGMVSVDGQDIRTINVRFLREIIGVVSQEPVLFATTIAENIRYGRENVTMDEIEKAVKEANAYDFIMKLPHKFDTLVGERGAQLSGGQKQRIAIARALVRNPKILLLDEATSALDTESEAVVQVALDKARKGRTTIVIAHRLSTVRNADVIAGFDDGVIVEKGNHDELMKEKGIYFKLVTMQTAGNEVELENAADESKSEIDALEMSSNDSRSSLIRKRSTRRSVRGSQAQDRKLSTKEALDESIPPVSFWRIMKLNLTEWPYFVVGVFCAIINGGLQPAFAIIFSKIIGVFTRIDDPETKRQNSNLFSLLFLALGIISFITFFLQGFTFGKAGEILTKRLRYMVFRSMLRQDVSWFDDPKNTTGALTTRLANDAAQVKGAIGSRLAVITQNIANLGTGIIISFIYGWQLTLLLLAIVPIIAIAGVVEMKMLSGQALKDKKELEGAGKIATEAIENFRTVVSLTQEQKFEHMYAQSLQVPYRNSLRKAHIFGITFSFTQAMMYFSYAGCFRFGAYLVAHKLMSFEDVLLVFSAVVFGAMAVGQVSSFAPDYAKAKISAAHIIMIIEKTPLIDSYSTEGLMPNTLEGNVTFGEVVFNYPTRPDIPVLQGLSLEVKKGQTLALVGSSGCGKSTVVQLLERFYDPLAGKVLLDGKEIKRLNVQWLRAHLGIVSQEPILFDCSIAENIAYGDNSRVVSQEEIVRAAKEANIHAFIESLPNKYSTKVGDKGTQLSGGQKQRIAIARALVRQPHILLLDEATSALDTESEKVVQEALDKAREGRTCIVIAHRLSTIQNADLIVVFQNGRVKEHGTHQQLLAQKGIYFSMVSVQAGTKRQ
T5 sequence (P08183 whole entry S893A): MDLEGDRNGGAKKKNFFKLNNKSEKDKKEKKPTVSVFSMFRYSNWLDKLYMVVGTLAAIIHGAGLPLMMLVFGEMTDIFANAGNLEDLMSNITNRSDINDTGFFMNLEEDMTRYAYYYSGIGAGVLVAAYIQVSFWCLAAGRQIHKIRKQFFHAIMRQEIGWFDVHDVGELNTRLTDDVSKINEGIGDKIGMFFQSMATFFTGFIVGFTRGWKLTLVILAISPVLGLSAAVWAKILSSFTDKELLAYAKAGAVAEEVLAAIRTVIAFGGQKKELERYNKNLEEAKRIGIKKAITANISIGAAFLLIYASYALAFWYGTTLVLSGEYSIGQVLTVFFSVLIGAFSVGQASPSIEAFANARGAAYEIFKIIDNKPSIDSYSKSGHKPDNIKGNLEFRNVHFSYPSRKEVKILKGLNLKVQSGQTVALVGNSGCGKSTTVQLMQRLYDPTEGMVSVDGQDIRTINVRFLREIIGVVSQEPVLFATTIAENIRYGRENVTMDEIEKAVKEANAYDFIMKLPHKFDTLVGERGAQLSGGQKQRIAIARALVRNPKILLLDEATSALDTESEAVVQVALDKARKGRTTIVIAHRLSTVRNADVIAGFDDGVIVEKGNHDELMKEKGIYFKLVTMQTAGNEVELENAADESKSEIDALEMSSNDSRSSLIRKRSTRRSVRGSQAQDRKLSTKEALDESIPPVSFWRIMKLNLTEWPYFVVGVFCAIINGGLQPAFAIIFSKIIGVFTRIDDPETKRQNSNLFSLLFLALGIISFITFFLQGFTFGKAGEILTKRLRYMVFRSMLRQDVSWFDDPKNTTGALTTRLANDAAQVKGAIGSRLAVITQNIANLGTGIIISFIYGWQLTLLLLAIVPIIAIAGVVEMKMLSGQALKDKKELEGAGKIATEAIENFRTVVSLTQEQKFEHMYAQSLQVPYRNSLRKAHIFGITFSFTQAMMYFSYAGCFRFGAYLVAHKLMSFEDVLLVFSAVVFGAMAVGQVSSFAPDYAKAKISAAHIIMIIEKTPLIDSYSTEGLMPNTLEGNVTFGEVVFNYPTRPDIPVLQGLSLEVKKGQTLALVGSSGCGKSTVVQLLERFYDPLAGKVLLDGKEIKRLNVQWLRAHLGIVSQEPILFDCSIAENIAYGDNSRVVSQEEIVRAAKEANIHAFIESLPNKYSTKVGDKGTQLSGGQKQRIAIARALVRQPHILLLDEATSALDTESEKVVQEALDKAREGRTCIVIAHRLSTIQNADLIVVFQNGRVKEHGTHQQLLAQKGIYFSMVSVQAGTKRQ
T3 sequence (P08183 whole entry S893A): as above
T1 sequence (P08183 whole entry): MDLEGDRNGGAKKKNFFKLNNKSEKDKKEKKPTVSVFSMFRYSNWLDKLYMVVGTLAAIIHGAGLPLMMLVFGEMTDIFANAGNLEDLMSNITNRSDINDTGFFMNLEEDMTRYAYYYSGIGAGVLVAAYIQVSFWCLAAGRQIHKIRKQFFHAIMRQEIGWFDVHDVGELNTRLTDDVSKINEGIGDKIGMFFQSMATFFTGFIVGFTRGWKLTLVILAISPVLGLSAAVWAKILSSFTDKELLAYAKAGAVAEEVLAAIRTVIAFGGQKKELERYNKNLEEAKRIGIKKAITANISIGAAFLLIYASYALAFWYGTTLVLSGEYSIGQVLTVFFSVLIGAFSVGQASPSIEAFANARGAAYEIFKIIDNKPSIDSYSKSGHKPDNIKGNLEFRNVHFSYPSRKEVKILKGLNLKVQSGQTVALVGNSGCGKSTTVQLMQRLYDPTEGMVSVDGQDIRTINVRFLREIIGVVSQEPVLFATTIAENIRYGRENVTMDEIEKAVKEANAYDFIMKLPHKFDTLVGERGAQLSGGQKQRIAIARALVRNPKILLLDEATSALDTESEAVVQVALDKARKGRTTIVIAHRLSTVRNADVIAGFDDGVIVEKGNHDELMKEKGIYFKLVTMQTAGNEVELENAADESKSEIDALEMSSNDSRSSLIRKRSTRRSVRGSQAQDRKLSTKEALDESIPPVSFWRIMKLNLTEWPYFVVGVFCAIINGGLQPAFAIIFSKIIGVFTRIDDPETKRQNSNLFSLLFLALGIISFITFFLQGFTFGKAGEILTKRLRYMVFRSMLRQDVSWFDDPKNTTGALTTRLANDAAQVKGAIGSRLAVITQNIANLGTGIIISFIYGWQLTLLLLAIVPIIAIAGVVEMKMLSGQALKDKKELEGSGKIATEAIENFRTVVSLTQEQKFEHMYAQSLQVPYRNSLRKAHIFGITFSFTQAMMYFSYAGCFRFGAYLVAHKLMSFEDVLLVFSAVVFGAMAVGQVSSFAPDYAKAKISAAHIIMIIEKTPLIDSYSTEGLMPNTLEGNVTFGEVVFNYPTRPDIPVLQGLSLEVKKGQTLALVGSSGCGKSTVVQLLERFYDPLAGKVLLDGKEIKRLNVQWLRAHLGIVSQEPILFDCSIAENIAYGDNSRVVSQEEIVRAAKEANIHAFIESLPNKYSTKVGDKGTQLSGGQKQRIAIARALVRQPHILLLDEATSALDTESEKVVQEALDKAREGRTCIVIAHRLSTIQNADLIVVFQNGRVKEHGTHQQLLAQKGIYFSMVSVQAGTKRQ

## COC(=O)c1ccccc1-c1c2ccc(=N)cc-2oc2cc(N)ccc12 [Rh123, Rhodamine123]
[1]; HEKWT, HEK1199A, HEKCGT and HEKTTT, without zosuquidar
  Rh123 intracellular fluorescence in cell lines overexpressing ABCB1 compared to HEKcontrol: significantly lower

## O=C(NCc1c(F)cc(F)cc1F)c1cn2c(c(O)c1=O)C(=O)N1[C@H]3CC[C@H](C3)O[C@@H]1C2 [bictegravir]
[2]
  biopharmaceutical classification system class: class II
  solubility (biopharmaceutical classification system): low solubility
[3]
  difference of bictegravir intracellular accumulation, HEKCGT vs HEKTTT: did not show any significant difference
  difference of bictegravir intracellular accumulation, HEKWT vs HEKTTT: did not show any significant difference
[4]
  bictegravir intracellular accumulation, HEKTTT versus HEKcontrol: significantly lower
[5]
  accumulation into human peripheral blood mononuclear cells: limited
[6]
  permeability (biopharmaceutical classification system): high permeability
  transepithelial permeability: High
[7]
  oral bioavailability: high
[8]
  change of bictegravir intracellular accumulation in the presence of zosuquidar, HEK1199G cells: significant increase
[9]
  plasma protein binding: high
[10]
  bictegravir intracellular accumulation, HEKCGT versus HEKcontrol: significantly lower
  difference of bictegravir intracellular accumulation, HEKWT vs HEKCGT: did not show any significant difference
ABCB1
  transport by ABCB1: active transport
[11]
  difference of bictegravir intracellular accumulation between HEKWT and HEK1199A: did not show any significant difference
[11]; protein-normalized, fold-change
  bictegravir intracellular accumulation, HEK1199A versus HEKcontrol: significantly lower
[12]; c.1199G > A experiments, protein-normalized, fold-change, Fig. 3
  bictegravir intracellular accumulation, HEKWT versus HEKcontrol: significantly lower
[12]; haplotype experiments, Fig. 4
  bictegravir intracellular accumulation, HEKWT versus HEKcontrol: significantly lower
[13]
  ratios of cerebrospinal fluid over plasma bictegravir concentrations: low

## Cc1nc(Nc2ncc(C(=O)Nc3c(C)cccc3Cl)s2)cc(N2CCN(CCO)CC2)n1 [dasatinib]
[14]
  effect of c.1199G > A variant on transport: affect the transport

## C[C@@H]1CCO[C@H]2Cn3cc(C(=O)NCc4ccc(F)cc4F)c(=O)c(O)c3C(=O)N12 [dolutegravir]
PBMCs
  intracellular accumulation in PBMCs compared to bictegravir: higher

## Cc1ccc(NC(=O)c2ccc(CN3CCN(C)CC3)cc2)cc1Nc1nccc(-c2cccnc2)n1 [imatinib]
[15]
  impact of c.1236C > T, c.2677G > T and c.3435C > T variants on anti-proliferative activity: more pronounced effect

## Cc1cn(-c2cc(NC(=O)c3ccc(C)c(Nc4nccc(-c5cccnc5)n4)c3)cc(C(F)(F)F)c2)cn1 [nilotinib]
[14]
  effect of c.1199G > A variant on transport: affect the transport

## C=CC[C@@H]1/C=C(\C)C[C@H](C)C[C@H](OC)[C@H]2O[C@@](O)(C(=O)C(=O)N3CCCC[C@H]3C(=O)O[C@H](/C(C)=C/[C@@H]3CC[C@@H](O)[C@H](OC)C3)[C@H](C)[C@@H](O)CC1=O)[C@H](C)C[C@@H]2OC [tacrolimus]
[14]; same cellular model
  impact of c.1199G > A variant on intracellular accumulation: significant impact

## O[C@@H](COc1cccc2ncccc12)CN1CCN([C@@H]2c3ccccc3[C@@H]3[C@H](c4ccccc42)C3(F)F)CC1 [zosuquidar, zosuquidar hydrochloride]
[1]; [16]
  Rh123 intracellular fluorescence after pre-incubation with zosuquidar, cell lines overexpressing ABCB1: increased to a level close to the level measured for HEKcontrol
  effect of the inhibitor on Rh123 fluorescence in the HEKcontrol batch used for haplotype functional characterization: small but significant effect
